# Patent US4694069A, “Kibdelosporangium aridum SK&F-AAD-609” (SmithKline Beckman Corporation, priority 1985, dated 1987)
# Experiments:
# [1] = test system: mixed intestinal microflora (cecum fluid); experiment: Swine in vitro model; details: one level, up to 166.67 ppm; 4-5 h
# Protocol: A swine in vitro model was used to characterize AAD-609 antibiotics as potential feed additives in swine and poultry. Mixed intestinal microflora were obtained from ileally-cannulated pigs. Virginiamycin, carbadox, AAD-216 and its components, and AAD-609 Complex (containing less than 5% AAD-216 antibiotics) were tested at one level. […] Glucose (GLU) was spared from microbial degradation. Volatile fatty acids (TOTAL) were the major end-product of microbial metabolism while lactic acid production were reduced. […] Since AAD-609 and AAD-216 give similar in vitro results, it is expected that AAD-609 has similar growth-promoting activity in monogastric animals. Also, the in vitro activity of AAD-609 is similar to the activity previously observed with bacitracin in this model.
# The swine in vitro model was carried out by incubating 1.5 ml of cecum fluid, from a swine fed normal rations, mixed with 1.5 ml of a nutrient broth (3 mg casein hydrolysate, 30 mg maltose, 1.25 mg urea, 0.5 mg lysine, and 30 mg cellobiose) and with up to 166.67 parts per million of a selected growth promotant at 39° C., with oscillation, for about 4-5 hours. Results, percentage of control, are reported in the following table in which all abbreviations are as above except that LLA means L-lactate and ETOH means ethanol.
# [2] = test system: rumen fermentation (strained rumen fluid); experiment: Rumen in vitro model; set-up: species or system steer; details: for AAN (alpha amino nitrogen) / AMO (ammonia nitrogen) / LYS (lysine): 6 h; for % PR (percent propionate) / ACE (acetate) / BUT (butyrate) / ETOH (ethanol) / IBU (isobutyrate) / IVA (isovalerate) / PRO (propionate) / TOTAL (total volatile fatty acids) / VAL: 24 h
# Protocol: The AAD-609 antibiotics were characterized in a rumen in vitro model to assess their potential as feed additives for ruminants. […] Specifically, strained rumen fluid (10 ml) obtained from a fistulated steer receiving a roughage ration, was mixed with 10 ml of nutrient broth (20 mg casein hydrolysate, 100 mg maltose, 15 mg urea, 400 mg solka floc (cellulose), 100 mg cellobiose and 100 mg starch) and with a selected growth promotant and incubated at 39° C., with oscillation, for 24 hours. […] Measurement of AMO, LYS and AAN was done with a sample taken from the incubation flask after 6 hours.
compound,measurement,setting,value
"COC(=O)N/N=C/c1c[n+]([O-])c2ccccc2[n+]1[O-] [Carbadox, carbadox]",% PR (percent propionate),[1],38 % of control
same,ACE (acetate),[1],47 % of control
same,BUT (butyrate),[1],46 % of control
same,ETOH (ethanol),[1],62 % of control
same,GLU (glucose),[1],138 % of control
same,IBU (isobutyrate),[1],0 % of control
same,IVA (isovalerate),[1],0 % of control
same,LLA (L-lactate),[1],9 % of control
same,LYS (lysine),[1],79 % of control
same,PRO (propionate),[1],11 % of control
same,TOTAL (total volatile fatty acids),[1],30 % of control
same,VAL,[1],0 % of control
"CC[C@@]1([C@@H]2O[C@@H]([C@H]3O[C@@](O)(CO)[C@H](C)C[C@@H]3C)C[C@@H]2C)CC[C@H]([C@]2(C)CC[C@]3(C[C@H](O)[C@@H](C)[C@@H]([C@@H](C)[C@@H](OC)[C@H](C)C(=O)O)O3)O2)O1 [Monensin, monensin]",AAN (alpha amino nitrogen),[2]; 0.50 ppm,117 % of control
same,AMO (ammonia nitrogen),[2]; 0.50 ppm,103 % of control
same,LYS (lysine),[2]; 0.50 ppm,78 % of control
same,% PR (percent propionate),[2]; 0.50 ppm,131 % of control
same,ACE (acetate),[2]; 0.50 ppm,100 % of control
same,BUT (butyrate),[2]; 0.50 ppm,92 % of control
same,ETOH (ethanol),[2]; 0.50 ppm,0 % of control
same,IBU (isobutyrate),[2]; 0.50 ppm,112 % of control
same,IVA (isovalerate),[2]; 0.50 ppm,150 % of control
same,PRO (propionate),[2]; 0.50 ppm,141 % of control
same,TOTAL (total volatile fatty acids),[2]; 0.50 ppm,108 % of control
same,VAL,[2]; 0.50 ppm,100 % of control
same,AAN (alpha amino nitrogen),[2]; 5.00 ppm,185 % of control
same,AMO (ammonia nitrogen),[2]; 5.00 ppm,101 % of control
same,LYS (lysine),[2]; 5.00 ppm,144 % of control
same,% PR (percent propionate),[2]; 5.00 ppm,189 % of control
same,ACE (acetate),[2]; 5.00 ppm,101 % of control
same,BUT (butyrate),[2]; 5.00 ppm,61 % of control
same,ETOH (ethanol),[2]; 5.00 ppm,0 % of control
same,IBU (isobutyrate),[2]; 5.00 ppm,84 % of control
same,IVA (isovalerate),[2]; 5.00 ppm,103 % of control
same,PRO (propionate),[2]; 5.00 ppm,208 % of control
same,TOTAL (total volatile fatty acids),[2]; 5.00 ppm,110 % of control
same,AAN (alpha amino nitrogen),[2]; 50.00 ppm,248 % of control
same,AMO (ammonia nitrogen),[2]; 50.00 ppm,101 % of control
same,LYS (lysine),[2]; 50.00 ppm,186 % of control
same,ACE (acetate),[2]; 50.00 ppm,96 % of control
same,BUT (butyrate),[2]; 50.00 ppm,53 % of control
same,ETOH (ethanol),[2]; 50.00 ppm,0 % of control
same,IBU (isobutyrate),[2]; 50.00 ppm,123 % of control
same,IVA (isovalerate),[2]; 50.00 ppm,132 % of control
same,PRO (propionate),[2]; 50.00 ppm,258 % of control
same,TOTAL (total volatile fatty acids),[2]; 50.00 ppm,117 % of control
same,VAL,[2]; 50.00 ppm,81 % of control
avoparcin,AAN (alpha amino nitrogen),[2]; 0.50 ppm,99 % of control
same,AMO (ammonia nitrogen),[2]; 0.50 ppm,93 % of control
same,LYS (lysine),[2]; 0.50 ppm,120 % of control
same,% PR (percent propionate),[2]; 0.50 ppm,102 % of control
same,ACE (acetate),[2]; 0.50 ppm,100 % of control
same,BUT (butyrate),[2]; 0.50 ppm,103 % of control
same,ETOH (ethanol),[2]; 0.50 ppm,0 % of control
same,IBU (isobutyrate),[2]; 0.50 ppm,91 % of control
same,IVA (isovalerate),[2]; 0.50 ppm,97 % of control
same,PRO (propionate),[2]; 0.50 ppm,104 % of control
same,TOTAL (total volatile fatty acids),[2]; 0.50 ppm,102 % of control
same,VAL,[2]; 0.50 ppm,103 % of control
same,AAN (alpha amino nitrogen),[2]; 5.00 ppm,120 % of control
same,AMO (ammonia nitrogen),[2]; 5.00 ppm,97 % of control
same,LYS (lysine),[2]; 5.00 ppm,150 % of control
same,% PR (percent propionate),[2]; 5.00 ppm,123 % of control
same,ACE (acetate),[2]; 5.00 ppm,94 % of control
same,BUT (butyrate),[2]; 5.00 ppm,82 % of control
same,ETOH (ethanol),[2]; 5.00 ppm,0 % of control
same,IBU (isobutyrate),[2]; 5.00 ppm,103 % of control
same,IVA (isovalerate),[2]; 5.00 ppm,94 % of control
same,PRO (propionate),[2]; 5.00 ppm,116 % of control
same,TOTAL (total volatile fatty acids),[2]; 5.00 ppm,94 % of control
same,VAL,[2]; 5.00 ppm,73 % of control
same,AAN (alpha amino nitrogen),[2]; 50.00 ppm,182 % of control
same,AMO (ammonia nitrogen),[2]; 50.00 ppm,111 % of control
same,LYS (lysine),[2]; 50.00 ppm,114 % of control
same,% PR (percent propionate),[2]; 50.00 ppm,129 % of control
same,ACE (acetate),[2]; 50.00 ppm,98 % of control
same,BUT (butyrate),[2]; 50.00 ppm,90 % of control
same,ETOH (ethanol),[2]; 50.00 ppm,0 % of control
same,IBU (isobutyrate),[2]; 50.00 ppm,117 % of control
same,IVA (isovalerate),[2]; 50.00 ppm,90 % of control
same,PRO (propionate),[2]; 50.00 ppm,130 % of control
same,TOTAL (total volatile fatty acids),[2]; 50.00 ppm,101 % of control
same,VAL,[2]; 50.00 ppm,68 % of control
